Reference: ChEMBL document CHEMBL1132414, “New bicyclam-AZT conjugates: design, synthesis, anti-HIV evaluation, and their interaction with CXCR-4 coreceptor” (J Med Chem, 1999)

Key:
[1] = physchem; conditions: octanol/water
Description: Partition coefficient (logP)

[2] = in vitro; conditions: human, uninfected MT-4 cells
Description: Concentration required to cause 50% death of uninfected MT-4 cells

[3] = system: Human immunodeficiency virus 1; experiment: microbe, parasite or virus in culture; conditions: Human immunodeficiency virus 1, MT4
Description: Concentration required to inhibit syncytia formation by 50% on HIV-1 infected MT-4 cells

[4] = octanol/water
Description: Partition coefficient (logP)

**Q.** With `O=C(c1ccc(C(=O)N2CCCNCCNCCCNCC2)cc1)N1CCCNCCNCCCNCC1` as the compound, how does the logP [1] read?
**A.** The logP was -2.11.

**Q.** What about the CC50 [2] of the same compound?
**A.** Its CC50 is 100 µM.

**Q.** What about the EC50 [3] of the same compound?
**A.** Its EC50 is 50 µM.

**Q.** For `Cc1cn(C2CC(N=[N+]=[N-])C(COC(=O)CCCCN3CCCN(Cc4ccc(CN5CCCNCCNCCCNCC5)cc4)CCNCCCNCC3)O2)c(=O)[nH]c1=O` (stereo not given), which logP [1] is on record?
**A.** The logP was 1.65.

**Q.** What about the CC50 [2] of the same compound?
**A.** The CC50 was 75 µM.

**Q.** What about the EC50 [3] of the same compound?
**A.** The EC50 was 0.005 µM.

**Q.** For `Cc1cn(C2CC(N=[N+]=[N-])C(COC(=O)CCCCN3CCCN(C(=O)CCCC(=O)N4CCCN(C(=O)OC(C)(C)C)CCN(C(=O)OC(C)(C)C)CCCN(C(=O)OC(C)(C)C)CC4)CCN(C(=O)OC(C)(C)C)CCCN(C(=O)OC(C)(C)C)CC3)O2)c(=O)[nH]c1=O` (stereo not given), which logP [1] is on record?
**A.** The logP was 5.85.

**Q.** And the CC50 [2]?
**A.** Its CC50 is 5 µM.

**Q.** And the EC50 [3]?
**A.** Its EC50 is 0.05 µM.

**Q.** For `CC(C)(C)OC(=O)N1CCCN(C(=O)OC(C)(C)C)CCN(C(=O)OC(C)(C)C)CCCN(Cc2ccc(CN3CCCN(C(=O)OC(C)(C)C)CCN(C(=O)OC(C)(C)C)CCCN(C(=O)OC(C)(C)C)CC3)cc2)CC1`, which logP [1] is on record?
**A.** Its logP is 6.47.

**Q.** What about the CC50 [2] of the same compound?
**A.** The CC50 was 5 µM.

**Q.** And the EC50 [3]?
**A.** The EC50 was 0.5 µM.

**Q.** For `O=C(CCCC(=O)N1CCCNCCNCCCNCC1)N1CCCNCCNCCCNCC1`, which logP [1] is on record?
**A.** The logP was 1.05.

**Q.** What about the CC50 [2] of the same compound?
**A.** The CC50 was 50 µM.

**Q.** What about the EC50 [3] of the same compound?
**A.** Its EC50 is 10 µM.

**Q.** For `CC(C)(C)OC(=O)N1CCCN(C(=O)OC(C)(C)C)CCN(C(=O)OC(C)(C)C)CCCN(C(=O)CCCC(=O)N2CCCN(C(=O)OC(C)(C)C)CCN(C(=O)OC(C)(C)C)CCCN(C(=O)OC(C)(C)C)CC2)CC1`, which logP [1] is on record?
**A.** Its logP is 6.14.

**Q.** What about the CC50 [2] of the same compound?
**A.** Its CC50 is 10 µM.

**Q.** And the EC50 [3]?
**A.** Its EC50 is greater than 50 µM.

**Q.** For `Cc1cn(C2CC(N=[N+]=[N-])C(COC(=O)CCCCN3CCCNCCNCCCNCC3)O2)c(=O)[nH]c1=O` (stereo not given), which logP [1] is on record?
**A.** Its logP is -0.21.

**Q.** What about the CC50 [2] of the same compound?
**A.** The CC50 was 30 µM.

**Q.** What about the EC50 [3] of the same compound?
**A.** The EC50 was 0.01 µM.

**Q.** What does the source list for `c1cc(CN2CCCNCCNCCCNCC2)ccc1CN1CCCNCCNCCCNCC1` [PLERIXAFOR]?
**A.** logP [4]: 0.89; CC50 [2]: 50 µM; EC50 [3]: 10 µM

**Q.** Which logP [1] does the source give for `Cc1cn(C2CC(N=[N+]=[N-])C(COC(=O)CCCCN3CCCN(C(=O)c4ccc(C(=O)N5CCCN(C(=O)OC(C)(C)C)CCN(C(=O)OC(C)(C)C)CCCN(C(=O)OC(C)(C)C)CC5)cc4)CCN(C(=O)OC(C)(C)C)CCCN(C(=O)OC(C)(C)C)CC3)O2)c(=O)[nH]c1=O` (stereo not given) here?
**A.** Its logP is 2.69.

**Q.** And the CC50 [2]?
**A.** The CC50 was 0.5 µM.

**Q.** And the EC50 [3]?
**A.** The EC50 was 0.03 µM.

**Q.** What does the source list for `CC(C)(C)OC(=O)N1CCCN(C(=O)OC(C)(C)C)CCN(C(=O)c2ccc(C(=O)N3CCCN(C(=O)OC(C)(C)C)CCN(C(=O)OC(C)(C)C)CCCN(C(=O)OC(C)(C)C)CC3)cc2)CCCN(C(=O)OC(C)(C)C)CC1`?
**A.** logP [1]: 3.46; CC50 [2]: 10 µM; EC50 [3]: 1 µM

**Q.** What does the source list for `Cc1cn(C2CC(N=[N+]=[N-])C(COC(=O)CCCCN3CCCN(C(=O)c4ccc(C(=O)N5CCCNCCNCCCNCC5)cc4)CCNCCCNCC3)O2)c(=O)[nH]c1=O` (stereo not given)?
**A.** logP [1]: -1.35; CC50 [2]: 75 µM; EC50 [3]: 0.01 µM

**Q.** What does the source list for `Cc1cn(C2CC(N=[N+]=[N-])C(COC(=O)CCCCN3CCCN(C(=O)CCCC(=O)N4CCCNCCNCCCNCC4)CCNCCCNCC3)O2)c(=O)[nH]c1=O` (stereo not given)?
**A.** logP [1]: 1.81; CC50 [2]: 75 µM; EC50 [3]: 0.05 µM

**Q.** With `Cc1cn(C2CC(N=[N+]=[N-])C(COC(=O)CCCCN3CCCN(Cc4ccc(CN5CCCN(C(=O)OC(C)(C)C)CCN(C(=O)OC(C)(C)C)CCCN(C(=O)OC(C)(C)C)CC5)cc4)CCN(C(=O)OC(C)(C)C)CCCN(C(=O)OC(C)(C)C)CC3)O2)c(=O)[nH]c1=O` (stereo not given) as the compound, how does the logP [1] read?
**A.** The logP was 5.7.

**Q.** And the CC50 [2]?
**A.** The CC50 was 5 µM.

**Q.** And the EC50 [3]?
**A.** The EC50 was 0.005 µM.

**Q.** Which logP [1] does the source give for `Cc1cn(C2CC(N=[N+]=[N-])C(COC(=O)CCCC(=O)N3CCCNCCNCCCNCC3)O2)c(=O)[nH]c1=O` (stereo not given) here?
**A.** The logP was 0.14.

**Q.** And the CC50 [2]?
**A.** The CC50 was 100 µM.

**Q.** What about the EC50 [3] of the same compound?
**A.** Its EC50 is 0.01 µM.

**Q.** For `Cc1cn(C2CC(N=[N+]=[N-])C(COC(=O)CCCC(=O)N3CCCN(C(=O)OC(C)(C)C)CCN(C(=O)OC(C)(C)C)CCCN(C(=O)OC(C)(C)C)CC3)O2)c(=O)[nH]c1=O` (stereo not given), which logP [1] is on record?
**A.** Its logP is 2.68.

**Q.** And the CC50 [2]?
**A.** Its CC50 is 50 µM.

**Q.** And the EC50 [3]?
**A.** The EC50 was 0.05 µM.
